{"source": "paper PMC6359144", "about": "(International Journal of Molecular Sciences, 2019)", "key": {"[1]": {"test_system": "518A2 melanoma cells", "assay": "MTT assay, 518A2 melanoma cells", "type": "cell-based, human", "conditions": "for IC50: Homo sapiens, MTT, mean ± SD of four experiments", "experimental": "(§1) HT-29 (ACC-299), HCT-116 (ACC-581) and DLD-1 (ACC-278) colon carcinoma, MCF-7 (ACC-115) breast carcinoma, KB-V1 (ACC-149), 518A2 (Department of Radiotherapy and Radiobiology, University Hospital Vienna) melanoma and Ea.Hy926 (ATCC no. CRL-2922) HUVEC derived endothelial hybrid cells line were grown in Dulbecco’s Modified Eagle Medium (DMEM; Biochrom), high glucose supplemented with 10% (v/v) fetal bovine serum (FBS; Biochrom.) and 1% (v/v) Antibiotic-Antimycotic solution (anti-anti; Thermo Scientific). HDFa human dermal fibroblasts (ATCC: PCS-201-012™) were grown in DMEM supplemented with 10% FBS, 1% anti-anti and 2 mM glutamine. The cells were incubated at 37 °C, 5% CO2, 95% humidified atmosphere. By repeated addition of topotecan or vinblastine at the maximum tolerated dose to the cell medium of MCF-7 and KB-V1 cells, the cells were rendered multidrug-resistant, indicated as MCF-7^Topo and KB-V1^Vbl, respectively. They were serially passaged following trypsinization by using 0.05% trypsin/0.02% EDTA (Biochrom). Mycoplasma contamination was routinely monitored, and only mycoplasma–free cultures were used.\n(§2) MTT [3-(4,5-dimethylthiazol-2-yl)-2,5-diphenyltetrazolium bromide] (ABCR) was used to determine the cytotoxicity of test compounds as previously described. Briefly, HDFa human dermal fibroblasts and Ea.Hy926 endothelial hybrid cells (both 1 × 10^5 cells/mL, 100 µL/well), 518A2 melanoma, KB-V1^Vbl cervix carcinoma, MCF-7^Topo breast carcinoma, HT-29, DLD-1 and HCT-116 colon carcinoma (all 5 × 10^4 cells/mL, 100 µL/well) were grown in 96-well culture plates for 24 h. Then, various concentrations of the test compounds were added and the cells were incubated for 24-72 h at 37 °C. After adding 12.5 µL of a 0.5% MTT solution in PBS (final concentration 0.05%) to cell medium, microplates were incubated for 2 h and subsequently swiftly turned to discard the medium. The precipitate of formazan crystals was then dissolved in a 10% solution of SDS in DMSO containing 0.6% acetic acid. To ensure complete dissolution of formazan, microplates were incubated for at least 4 h at 37 °C. Finally, the absorbance at λ = 570 nm (formazan) and 630 nm (background) was measured using a microplate reader (Tecan F200). All experiments were carried out in quadruplicate and the percentage of viable cells was calculated as the mean ± SD with controls set to 100%. Selected graphs of MTT assays can be found in the Supporting Information (Figure S8)."}, "[2]": {"test_system": "HT-29 colon carcinoma cells", "assay": "MTT assay, HT-29 colon carcinoma cells", "type": "cell-based, human", "conditions": "Homo sapiens, MTT", "experimental": "as §1, §2"}, "[3]": {"test_system": "KB-V1^Vbl cervix carcinoma cells", "assay": "MTT assay, KB-V1^Vbl cervix carcinoma cells", "type": "cell-based", "conditions": "Homo sapiens, read-out: IC50 KB-V1^Vbl (72 h)", "experimental": "as §1, §2"}, "[4]": {"test_system": "non-malignant HDFa dermal fibroblasts", "assay": "MTT assay, HDFa dermal fibroblasts", "type": "cell-based", "conditions": "Homo sapiens, read-out: IC50 HDFa (72 h)", "experimental": "as §1\nMTT [3-(4,5-dimethylthiazol-2-yl)-2,5-diphenyltetrazolium bromide] (ABCR) was used to determine the cytotoxicity of test compounds as previously described. Briefly, HDFa human dermal fibroblasts and Ea.Hy926 endothelial hybrid cells (both 1 × 10^5 cells/mL, 100 µL/well), 518A2 melanoma, KB-V1^Vbl cervix carcinoma, MCF-7^Topo breast carcinoma, HT-29, DLD-1 and HCT-116 colon carcinoma (all 5 × 10^4 cells/mL, 100 µL/well) were grown in 96-well culture plates for 24 h. Then, various concentrations of the test compounds were added and the cells were incubated for 24-72 h at 37 °C. […] Finally, the absorbance at λ = 570 nm (formazan) and 630 nm (background) was measured using a microplate reader (Tecan F200). All experiments were carried out in quadruplicate and the percentage of viable cells was calculated as the mean ± SD with controls set to 100%. […]"}, "[5]": {"test_system": "518A2 melanoma cells", "assay": "Cell cycle analysis by flow cytometry after PI staining", "type": "cell-based, human", "conditions": "24 h; for cell cycle arresting effect: 518A2 cells, FACS", "experimental": "The 518A2 melanoma cells (3 mL/well; 5 × 10^4 cells/mL) were grown on 6-well tissue culture plates for 24 h. After treatment with 4d (150, and 200 nM), 4e (0.8, and 1 µM), 4f (2, and 3 µM), or DMSO (control) for another 24 h, cells were fixed (70% EtOH, 24 h, 4 °C), washed with PBS and incubated with propidium iodide (PI; Carl Roth) staining solution (50 µg/mL PI, 0.1% sodium citrate, 50 µg/mL RNase A in PBS) for 30 min at 37 °C. […] The percentages of cells in the different phases of the cell cycle (G1, S and G2/M phase) were determined using the CXP Analysis software (Beckmann Coulter). The percentage of apoptotic cells was derived from sub-G1 peaks. Data was normally distributed for each group (Shapiro–Wilk test, p > 0.05). Since homogeneity of variance (Levene’s test, p < 0.05) was violated, a correction was calculated for Anova (Welch test)."}, "[6]": {"test_system": "p21, p27, cyclin D1 in 518A2 melanoma cells", "assay": "Western blot of cell cycle regulatory proteins", "type": "cell-based, human", "conditions": "24 h; for effect on p21 expression: 4d […]–4 µM, SAHA 5 µM", "experimental": "After harvesting and lysing of the cells, western blotting was performed as described before. For subsequent analysis, the protein-loaded membranes were incubated with antibodies directed against p21 (Abcam ab109199), p27 ([…]), cyclin D1 (Cell Signaling 29225) and GADPH (Santa Cruz sc25778) in 1:1000 dilutions. After incubation with horseradish peroxidase-coupled anti-IgG antibodies (1:10,000; Amersham), the blot was developed using the Celvin-S developer (Biostep) and the software SnapAndGo 1.8.1."}, "[7]": {"test_system": "nude mice", "assay": "In vivo toxicity in nude mice", "design": "species or system mouse", "conditions": "1 × 100 mg/kg i.p., 1 × 200 mg/kg orally", "experimental": "In vivo toxicity of 4d was studied in nude mice (Charles River Laboratories, Sulzfeld, Germany). These experiments were carried out following the institutional guidelines. 4d was formulated in 10% Tween80/10% ethanol/80% saline for administration. […] The body weight of the mice was assessed daily under therapy."}, "[8]": {"conditions": "518A2, read-out: IC50 518A2 (72 h), 72 h"}, "[9]": {"conditions": "518A2, 24 h, read-out: IC50 518A2 (24 h)"}, "[10]": {"conditions": "HT-29, read-out: IC50 HT-29 (72 h), 72 h"}, "[11]": {"conditions": "HT-29, 24 h, read-out: IC50 HT-29 (24 h)"}}, "note": "Like-named read-outs stand apart in the source and are kept apart here."}
{"smiles": "COc1ccc(-c2ocnc2-c2cc(Br)c(OC)c(OC)c2)cc1OCCCC(=O)NO", "note": "[4d, N-Hydroxy-4-[1-methoxy-4-(4’-(3’’-bromo-4’’,5’’-dimethoxyphenyl)oxazol-5’-yl)-2-phenoxy]butanamide]", "values": [{"measurement": "IC50 after 72 h compared with IC50 after 24 h", "setting": "[1]; 518A2 melanoma cells, fold lower", "result": "about eight-fold"}, {"measurement": "IC50", "setting": "[1]; [8]", "result": "110 ± 10", "unit": "nM"}, {"measurement": "IC50", "setting": "[1]; [9]", "result": "710 ± 50", "unit": "nM"}, {"measurement": "IC50", "setting": "[2]; [10]", "result": "1400 ± 200", "unit": "nM"}, {"measurement": "IC50", "setting": "[2]; [11]", "result": "1300 ± 300", "unit": "nM"}, {"measurement": "IC50", "setting": "[3]", "result": "480 ± 60", "unit": "nM"}, {"measurement": "IC50", "setting": "[4]", "result": "23900 ± 1600", "unit": "nM"}, {"measurement": "cells in G1", "setting": "[5]; 0.2 µM", "result": "33.9 ± 3.4", "unit": "%"}, {"measurement": "cells in G2/M", "setting": "[5]; 0.2 µM", "result": "35.4 ± 2.4", "unit": "%"}, {"measurement": "cells in S", "setting": "[5]; 0.2 µM", "result": "16.3 ± 1.1", "unit": "%"}, {"measurement": "cells in Sub-G1", "setting": "[5]; 0.2 µM", "result": "14.4 ± 2.8", "unit": "%"}, {"measurement": "cell cycle arresting effect", "setting": "[5]", "result": "accumulation of 518A2 cells in G2/M phase"}, {"measurement": "effect on p21 expression", "setting": "[6]", "result": "distinctly suppressed p21 expression"}, {"measurement": "effect on cyclin D1 level", "setting": "[6]; 4d 0.15–4 µM", "result": "increased the level of cyclin D1"}, {"measurement": "body weight changes", "setting": "[7]", "result": "≤ 5", "unit": "%"}, {"measurement": "tolerability in mice", "setting": "[7]; observed two weeks", "result": "tolerated well"}]}
{"smiles": "COc1ccc(-c2ocnc2-c2cc(Br)c(OC)c(OC)c2)cc1OCCCCC(=O)NO", "note": "[4e, N-Hydroxy-5-[1-methoxy-4-(4’-(3’’-bromo-4’’,5’’-dimethoxyphenyl)oxazol-5’-yl)-2-phenoxy]pentanamide]", "values": [{"measurement": "IC50", "setting": "[1]; [8]", "result": "800 ± 70", "unit": "nM"}, {"measurement": "IC50", "setting": "[1]; [9]", "result": "2400 ± 300", "unit": "nM"}, {"measurement": "IC50", "setting": "[2]; [10]", "result": "1900 ± 200", "unit": "nM"}, {"measurement": "IC50", "setting": "[2]; [11]", "result": "2100 ± 600", "unit": "nM"}, {"measurement": "IC50", "setting": "[3]", "result": "2000 ± 300", "unit": "nM"}, {"measurement": "IC50", "setting": "[4]", "result": "> 100000", "unit": "nM"}, {"measurement": "cells in G1", "setting": "[5]; 0.8 µM", "result": "43.1 ± 1.3", "unit": "%"}, {"measurement": "cells in G2/M", "setting": "[5]; 0.8 µM", "result": "32.6 ± 1.7", "unit": "%"}, {"measurement": "cells in S", "setting": "[5]; 0.8 µM", "result": "19.2 ± 0.7", "unit": "%"}, {"measurement": "cells in Sub-G1", "setting": "[5]; 0.8 µM", "result": "5.1 ± 1.2", "unit": "%"}, {"measurement": "cells in G1", "setting": "[5]; 1 µM", "result": "35.4 ± 1.1", "unit": "%"}, {"measurement": "cells in G2/M", "setting": "[5]; 1 µM", "result": "34.9 ± 3.5", "unit": "%"}, {"measurement": "cells in S", "setting": "[5]; 1 µM", "result": "19.0 ± 0.3", "unit": "%"}, {"measurement": "cells in Sub-G1", "setting": "[5]; 1 µM", "result": "10.8 ± 4.4", "unit": "%"}, {"measurement": "cell cycle arresting effect", "setting": "[5]", "result": "accumulation of 518A2 cells in G2/M phase"}]}
{"smiles": "COc1ccc(-c2ocnc2-c2cc(Br)c(OC)c(OC)c2)cc1OCCCCCC(=O)NO", "note": "[4f, N-Hydroxy-6-[1-methoxy-4-(4’-(3’’-bromo-4’’,5’’-dimethoxyphenyl)oxazol-5’-yl)-2-phenoxy]hexanamide]", "values": [{"measurement": "IC50", "setting": "[1]; [8]", "result": "6400 ± 400", "unit": "nM"}, {"measurement": "IC50", "setting": "[1]; [9]", "result": "7600 ± 200", "unit": "nM"}, {"measurement": "IC50", "setting": "[2]; [10]", "result": "14200 ± 1600", "unit": "nM"}, {"measurement": "IC50", "setting": "[2]; [11]", "result": "6600 ± 600", "unit": "nM"}, {"measurement": "IC50", "setting": "[3]", "result": "7100 ± 200", "unit": "nM"}, {"measurement": "IC50", "setting": "[4]", "result": "> 50000", "unit": "nM"}, {"measurement": "cells in G1", "setting": "[5]; 2 µM", "result": "53.9 ± 0.8", "unit": "%"}, {"measurement": "cells in G2/M", "setting": "[5]; 2 µM", "result": "22.2 ± 0.5", "unit": "%"}, {"measurement": "cells in S", "setting": "[5]; 2 µM", "result": "18.3 ± 0.7", "unit": "%"}, {"measurement": "cells in Sub-G1", "setting": "[5]; 2 µM", "result": "5.6 ± 0.8", "unit": "%"}, {"measurement": "cells in G1", "setting": "[5]; 3 µM", "result": "54.2 ± 0.5", "unit": "%"}, {"measurement": "cells in G2/M", "setting": "[5]; 3 µM", "result": "22.5 ± 0.3", "unit": "%"}, {"measurement": "cells in S", "setting": "[5]; 3 µM", "result": "16.9 ± 0.6", "unit": "%"}, {"measurement": "cells in Sub-G1", "setting": "[5]; 3 µM", "result": "6.3 ± 0.9", "unit": "%"}, {"measurement": "cell cycle arresting effect", "setting": "[5]", "result": "induced a G1 phase arrest"}, {"measurement": "effect on p21 expression", "setting": "[6]", "result": "upregulated p21 expression in a dose-dependent way"}]}
